Results taken from PubChem BioAssay AID1648 (Sanford-Burnham Center for Chemical Genomics, 2009).
Calls of active or inactive are those of the source. How the calls were made is not given here. Residues, ends and D or L forms follow the SMILES beside them.

The compounds below were run against Serine/threonine-protein kinase mTOR (Homo sapiens) (UniProt P42345) (assay: mTOR FRB domain ligand binding – biophysical, NMR (AID 1648)). Details: NMR binding to FRB domain, chemical shift.
Chain of Serine/threonine-protein kinase mTOR (Homo sapiens) (P42345 2015-2114): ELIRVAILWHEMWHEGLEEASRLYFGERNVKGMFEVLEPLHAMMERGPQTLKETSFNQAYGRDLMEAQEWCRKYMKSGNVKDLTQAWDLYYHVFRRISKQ

| SMILES | Kd |
| --- | --- |
| CS(=O)(=O)N1CCN(C(=O)c2ccccc2F)CC1 | > 4 mM (inactive) |
| CC(C)c1ccc(NC(=O)C(N)=O)cc1 | > 4 mM (inactive) |
| CC(C)(C)CC(=O)NC1=NCCS1 | > 4 mM (inactive) |
| CNC(=S)Nc1ccc2c(c1)OCO2 | > 4 mM (inactive) |
| COc1cc2c(cc1OC)C1Cc3ccc(OC)c(OC)c3CN1CC2 (centres undefined) | > 4 mM (inactive) |
| COc1ccc(Cl)cc1-c1n[nH]c(=S)n1C | > 4 mM (inactive) |
| NC1=NN(c2ccccc2)C(=O)C1 | > 4 mM (inactive) |
| NCC(=O)c1ccccc1 | > 4 mM (inactive) |
| CCN1C(=O)c2cccc3c(S(N)(=O)=O)ccc1c23 | > 4 mM (inactive) |
| COc1cc(/C=C2/NC(=S)NC2=O)cc(Cl)c1O | > 4 mM (inactive) |
| O=C(O)CSCc1c(F)cccc1Cl | > 4 mM (inactive) |
| CN1C(=O)C2C=CC1C1C(=O)N(c3ccccc3)C(=O)C21 (centres undefined) | > 4 mM (inactive) |
| CCCCCC1C(=O)CCC1CC(=O)OC (centres undefined) | > 4 mM (inactive) |
| c1cncc(Nc2nc(-c3cccnc3)cs2)c1 | > 4 mM (inactive) |
| CC1=C(C(N)=O)C(c2cccs2)C(C(N)=O)=C(C)N1 | > 4 mM (inactive) |
| C[N+](C)(C)CC(O)CC(=O)O (centres undefined) | > 4 mM (inactive) |
| CC(=O)O[C@H]1CC[C@@]2(C)C(CC[C@]3(C)C2C(=O)C=C2C4[C@@H](C)[C@H](C)CC[C@]4(C(=O)O)CC[C@]23C)C1(C)C (some centres undefined) | > 4 mM (inactive) |
| Cn1c(=O)c2c([nH]c(=O)n2C)n(C)c1=O | > 4 mM (inactive) |
| O=C(NCCO)c1cc2ccccc2c(=O)s1 | > 4 mM (inactive) |
| Fc1ccc(F)c(CN2CCN(c3ncccn3)CC2)c1 | > 4 mM (inactive) |
| C=CCCCCCCCCCCCC(O)CC(O)COC(C)=O (centres undefined) (tested in a mixture with another compound) | > 4 mM (inactive) |
| Cn1c(=O)c2[nH]c(Nc3ccccc3)nc2n(C)c1=O | > 4 mM (inactive) |

| SMILES | Kd |
| --- | --- |
| Cc1cc(C)c(C#N)c(N2CCCC2)n1 | > 4 mM (inactive) |
| O=C(NCN1CCOCC1)c1cnccn1 | > 4 mM (inactive) |
| Cc1[nH]c2ccccc2c1CN(C)C | > 4 mM (inactive) |
| Nc1ccccc1-n1cccn1 | > 4 mM (inactive) |
| Cc1ccc(CN2C3=NC(=O)CN3c3ccccc32)cc1 | > 4 mM (inactive) |
| Nc1ccc(Cl)nn1 | > 4 mM (inactive) |
| O=C(O)c1cc(O)c2c(c1)[C@@H]([C@H]1c3cc(C(=O)O)cc(O)c3C(=O)c3c(O[C@H]4O[C@H](CO)[C@@H](O)[C@H](O)[C@H]4O)cccc31)c1cccc(O[C@H]3O[C@H](CO)[C@@H](O)[C@H](O)[C@H]3O)c1C2=O | > 4 mM (inactive) |
| O=C1CC(=O)N(c2ccccc2F)C(=S)N1 | > 4 mM (inactive) |
| COc1cc(OC)c(OC)cc1C=O | > 4 mM (inactive) |
| O=C(O)CCCN1CNC(=S)NC1 | > 4 mM (inactive) |
| CC(C)(C)c1cc(NC(=O)c2cccnc2)no1 | > 4 mM (inactive) |
| CSc1ccn(CCC(=O)O)c(=O)n1 | > 4 mM (inactive) |
| C=CCc1ccc(OC(=O)c2ccccc2)c(OC)c1 | > 4 mM (inactive) |
| O=C1Nc2ccccc2C1C1(O)C(=O)Nc2ccc(F)cc21 (centres undefined) | > 4 mM (inactive) |
| CSc1nnnn1-c1cccc(O)c1 | > 4 mM (inactive) |
| CC(=O)c1nnc2cc(C)nn2c1C | > 4 mM (inactive) |
| c1ccc(C2NCCc3[nH]cnc32)cc1 (centres undefined) | > 4 mM (inactive) |
| OCc1cccc2c1OCO2 | > 4 mM (inactive) |
| NC(=O)CC1Sc2ccccc2NC1=O (centres undefined) | > 4 mM (inactive) |
| C[C@@H]1CC[C@@]2(NC1)O[C@H]1C[C@H]3C4CC=C5C[C@@H](O)CC[C@]5(C)C4CC[C@]3(C)C1[C@@H]2C (some centres undefined) | > 4 mM (inactive) |
| O=C(NCc1cccc(Cl)c1)c1ccco1 | > 4 mM (inactive) |
| C[C@@H]1OC(O[C@H]2[C@H](OC(=O)[C@]34CCC(C)(C)CC3C3=CCC5[C@@]6(C)CC[C@H](OC7O[C@@H](C)[C@H](O[C@@H]8OC[C@@H](O)[C@H](O)[C@H]8O)[C@@H](O)[C@H]7O)C(C)(C)C6CC[C@@]5(C)[C@]3(C)CC4O)OC[C@H](O)[C@H]2O)[C@H](O)[C@H](O)[C@H]1O[C@@H]1O[C@H](CO)[C@@H](O)[C@H](O)[C@H]1O (some centres undefined) | > 4 mM (inactive) |

| SMILES | Kd |
| --- | --- |
| COc1ccc(N2C(=N)C(C)(C)NC2=O)cc1 | > 4 mM (inactive) |
| C=C(C)C1Cc2c(ccc(C(=O)O)c2O)O1 (centres undefined) | > 4 mM (inactive) |
| c1ccc(NCc2nc(-c3ccccc3)no2)cc1 | > 4 mM (inactive) |
| O=c1ccc(=O)n(CN2CCc3ccccc3C2)[nH]1 | > 4 mM (inactive) |
| COc1c(C)c2c(c(O)c1C/C=C(\C)CCC(=O)O)C(=O)OC2 | > 4 mM (inactive) |
| CCC(C)C(=O)O[C@H]1[C@H](O)C2C(CN3CC(C)CCC3[C@@]2(C)O)C2C[C@]34O[C@]5(O)C(OC(=O)C(C)(O)C(C)O)CC[C@@]3(C)C5C(OC(C)=O)[C@@H](OC(C)=O)C4[C@@]21O (some centres undefined) | > 4 mM (inactive) |
| CCNC(CC(=O)Nc1ccc(O)cc1)C(=O)O (centres undefined) | > 4 mM (inactive) |
| COc1cc(C(C)=O)ccc1OC(=O)N1CCOCC1 | > 4 mM (inactive) |
| CC1CC[C@]2(NC1)O[C@H]1CC3C4CC[C@H]5C[C@@H](O)CC[C@]5(C)C4CC[C@]3(C)[C@H]1[C@@H]2C (some centres undefined) | > 4 mM (inactive) |
| c1ccc(Cc2nnc3sc(-c4cccnc4)nn23)cc1 | > 4 mM (inactive) |
| OCc1ccc(N2CCOCC2)cc1 | > 4 mM (inactive) |
| Cc1nc2ccccc2c(=O)n1NC(=O)C1CCCCC1 | > 4 mM (inactive) |
| NC(=O)CS(=O)(=O)c1ccc(Cl)cc1 | > 4 mM (inactive) |
| CCn1cnc2sc(C(=O)O)c(C)c2c1=O | > 4 mM (inactive) |
| CC(C)c1ccc2c(c1)CCC1C(C)(C(N)=O)CCCC21C (centres undefined) | > 4 mM (inactive) |
| NCC(N)C(=O)c1ccccc1 (centres undefined) | > 4 mM (inactive) |
| CC(=O)N[C@@H](CC(=O)O)C(=O)N[C@@H](CCC(=O)O)C(=O)O (Ac-Asp-Glu-OH) | > 4 mM (inactive) |
| CS(C)=C1C(=O)NC(=O)N(Cc2ccc(F)cc2)C1=O | > 4 mM (inactive) |
| O=[N+]([O-])c1cccc(-c2c[n+](=O)c3c(n2[O-])CCC3)c1 | > 4 mM (inactive) |
| OC1CSc2ncnn2C1 (centres undefined) | > 4 mM (inactive) |
| CC(=O)c1cc2c(s1)SCC(=O)N2 | > 4 mM (inactive) |
| CC(=O)c1c(C)nc(C)nc1NC(=O)C(C)C | > 4 mM (inactive) |

| SMILES | Kd |
| --- | --- |
| COC1C(O)C(O)C(O)[C@@H](O)C1O (some centres undefined) | > 4 mM (inactive) |
| CC1=CC2C(CC1=O)C(C)=CCC2C(C)C (centres undefined) | > 4 mM (inactive) |
| Cc1[nH]c2ccccc2c1C=Nn1cncn1 | > 4 mM (inactive) |
| Cc1cc(NC(=O)c2cc(C)on2)no1 | > 4 mM (inactive) |
| C/C=C(\C)C(=O)O[C@H]1C[C@@H](OC(C)=O)[C@@]2(C(=O)OC)CO[C@@H]3C2[C@]12CO[C@](O)(C(=O)OC)[C@H]2[C@](C)(C12O[C@@]1(C)[C@H]1C[C@@H]2OC2OC=C[C@@]21O)[C@@H]3O (some centres undefined) | > 4 mM (inactive) |
| Nc1ccc(NC(=O)c2ccco2)c(Cl)c1 | > 4 mM (inactive) |
| CC1CN(C(=O)c2ccncc2)CC(C)O1 (centres undefined) | > 4 mM (inactive) |
| Cc1onc(-c2ccccc2)c1CN | > 4 mM (inactive) |
| Nc1cccc(S(=O)(=O)N2CCOCC2)c1 | > 4 mM (inactive) |
| N#Cc1nc(-c2cccs2)oc1N1CCOCC1 | > 4 mM (inactive) |
| CN(C)/C=N/S(=O)(=O)c1ccccc1 | > 4 mM (inactive) |
| CSc1nnc2c(n1)OC=Nc1ccccc1-2 | > 4 mM (inactive) |
| Nc1cccc2c(=O)[nH][nH]c(=O)c12 | > 4 mM (inactive) |
| O=C(Nc1ccccc1Cl)c1cnccn1 | > 4 mM (inactive) |
| COC1=C(OC)C(=O)C(C/C=C(\C)CC/C=C(\C)CC/C=C(\C)CC/C=C(/C)CC/C=C(\C)CC/C=C(\C)CC/C=C(\C)CC/C=C(\C)CC/C=C(\C)CCC=C(C)C)=C(C)C1=O | > 4 mM (inactive) |
| COc1ccc(-c2cn[nH]c2N)c(OC)c1 | > 4 mM (inactive) |
| NC(N)=NOCC[C@H](N)C(=O)O | > 4 mM (inactive) |
| CN1CCN(C(=S)c2ccc(N(C)C)cc2)CC1 | > 4 mM (inactive) |
| COc1cc2c(cc1OC)C(=O)OC2 | > 4 mM (inactive) |
| CS(=O)(=O)N1CCC(C(=O)NC2CCCC2)CC1 | > 4 mM (inactive) |
| Cc1cc(O)c2c(c1O)C(=O)c1c(O)cc(C)c(O)c1C2=O | > 4 mM (inactive) |
| Cc1cc(=O)oc2cc3c(cc12)OCCO3 | > 4 mM (inactive) |

| SMILES | Kd |
| --- | --- |
| NC(=O)C(=O)NCc1ccc(Cl)cc1 | > 4 mM (inactive) |
| Nc1csc(C(=O)O)c1 | > 4 mM (inactive) |
| Cc1cc(=O)c2c(O)c(C)c(O)cc2o1 | > 4 mM (inactive) |
| CCCCCC(=O)Cc1cc(O)cc(O)c1C(=O)Oc1cc(CC(=O)CCCCC)c(C(=O)O)c(OC)c1 | > 4 mM (inactive) |
| O=c1c(O)c(-c2ccccc2)oc2cc(O)ccc12 | > 4 mM (inactive) |
| CCCc1cc(=O)[nH]c2nnc(SCC(C)=O)n12 | > 4 mM (inactive) |
| O=C(O)CC[N+](=O)[O-] | > 4 mM (inactive) |
| O=C(O)CN1C(=O)c2cccc([N+](=O)[O-])c2C1=O | > 4 mM (inactive) |
| CSc1ccccc1NC(=O)c1ccoc1C | > 4 mM (inactive) |
| CC(=O)C1CC[C@H]2C3CC[C@H]4C[C@H](O)CC[C@]4(C)C3CC[C@]12C (some centres undefined) | > 4 mM (inactive) |
| C[N+](C)(C)CC(=O)[O-] | > 4 mM (inactive) |
| CC(=O)Nc1cc(S(=O)(=O)N(C)C)ccc1Cl | > 4 mM (inactive) |
| NC1Cc2ccccc2C1 | > 4 mM (inactive) |
| Cc1cc(O)c(C=O)c(O)c1C(=O)O | > 4 mM (inactive) |
| C(=Nn1cnnc1)c1ccccc1 | > 4 mM (inactive) |
| CCC(=O)Nc1cc(C(C)C)c(O)cc1C | > 4 mM (inactive) |
| Cc1nnc(SCC(=O)N2CCCCC2)s1 | > 4 mM (inactive) |
| OC(c1ccccc1)c1ccccn1 (centres undefined) | > 4 mM (inactive) |
| CC(=O)NC(=S)Nc1ccc(C(C)=O)cc1 | > 4 mM (inactive) |
| Cc1noc(C)c1C(=O)N1CCC2(CC1)OCCO2 | > 4 mM (inactive) |
| O=C(O)CCCC(=O)Nc1nccs1 | > 4 mM (inactive) |
